Columns and labels:
[1] = biological target: T1, endothelial nitric oxide synthetase (Homo sapiens, UniProt P29474); experiment: Screen C: endothelial nitric oxide synthetase inhibiting activity; type: biochemical
T1 construct: Enzyme may be isolated from human umbilical vein endothelial cells (HUVECs); endogenous in cells; host or cells: HUVECs (cells purchased from Clonetics Corp, San Diego); CHAPS-solubilised pellet supernatant

[2] = biological target: T2, neuronal nitric oxide synthetase (Rattus norvegicus, UniProt P29476); experiment: Screen A: neuronal nitric oxide synthetase inhibiting activity; type: biochemical; details: enzyme from rat hippocampus or cerebellum; 22° C., pH 7.4, 10 minutes; read-out: IC50 in Screen A (neuronal isoform)
T2 construct: Enzyme was isolated from rat hippocampus or cerebellum; from tissue; host or cells: male Sprague-Dawley rat cerebellum or hippocampus, 20,000 g supernatant

[3] = biological target: T3, macrophage nitric oxide synthetase (Mus musculus, UniProt P29477); experiment: Screen B: macrophage nitric oxide synthetase inhibiting activity; type: biochemical, murine; details: macrophage IC50 / neuronal IC50
T3 construct: Enzyme is prepared, after induction, from the cultured murine macrophage cell line J774A-1; endogenous in cells; host or cells: J774A-1 murine macrophages induced with LPS and IFN-gamma (lysate); cells from laboratories of the Imperial Cancer Research Fund
Text: The enzyme nitric oxide synthetase has a number of isoforms and compounds of formula I, or pharmaceutically acceptable salts thereof, may be screened for nitric oxide synthetase inhibiting activity by procedures based on those of Bredt and Snyder in Proc. Natl. Acad. Sci. (1990) 87, 682-685 and Forstermann et. al., Eur. J. Pharm. (1992) 225, 161-165 as follows. Nitric oxide synthetase converts ^3 H-L-arginine to ^3 H-L-citrulline which can be separated by cation exchange chromatography and quantified by scintillation counting.
Enzyme is prepared, after induction, from the cultured murine macrophage cell line J774A-1 (obtained from laboratories of the Imperial Cancer Research Fund).
J774A-1 cells are cultured in Dulbecco's Modified Eagles Medium (DMEM) supplemented with 10% foetal bovine serum, 4 mM L-glutamine and antibiotics (100 units/ml penicillin G, 100 μg/ml streptomycin & 0.25 μg/ml amphotericin B).
Cells are routinely grown in 225 cm^2 flasks containing 35 ml medium kept at 37° C. and in a humidified atmosphere containing 5% CO2.
Nitric oxide synthetase is produced by cells in response to interferon-γ (IFNγ) and lipopolysaccharide (LPS). […]
Labelled L-citrulline is separated from labelled L-arginine using Dowex AG-50W. […] After allowing the samples to dry the L-citrulline is quantified by scintillation counting. […]

T1 sequence (P29474 2-1203): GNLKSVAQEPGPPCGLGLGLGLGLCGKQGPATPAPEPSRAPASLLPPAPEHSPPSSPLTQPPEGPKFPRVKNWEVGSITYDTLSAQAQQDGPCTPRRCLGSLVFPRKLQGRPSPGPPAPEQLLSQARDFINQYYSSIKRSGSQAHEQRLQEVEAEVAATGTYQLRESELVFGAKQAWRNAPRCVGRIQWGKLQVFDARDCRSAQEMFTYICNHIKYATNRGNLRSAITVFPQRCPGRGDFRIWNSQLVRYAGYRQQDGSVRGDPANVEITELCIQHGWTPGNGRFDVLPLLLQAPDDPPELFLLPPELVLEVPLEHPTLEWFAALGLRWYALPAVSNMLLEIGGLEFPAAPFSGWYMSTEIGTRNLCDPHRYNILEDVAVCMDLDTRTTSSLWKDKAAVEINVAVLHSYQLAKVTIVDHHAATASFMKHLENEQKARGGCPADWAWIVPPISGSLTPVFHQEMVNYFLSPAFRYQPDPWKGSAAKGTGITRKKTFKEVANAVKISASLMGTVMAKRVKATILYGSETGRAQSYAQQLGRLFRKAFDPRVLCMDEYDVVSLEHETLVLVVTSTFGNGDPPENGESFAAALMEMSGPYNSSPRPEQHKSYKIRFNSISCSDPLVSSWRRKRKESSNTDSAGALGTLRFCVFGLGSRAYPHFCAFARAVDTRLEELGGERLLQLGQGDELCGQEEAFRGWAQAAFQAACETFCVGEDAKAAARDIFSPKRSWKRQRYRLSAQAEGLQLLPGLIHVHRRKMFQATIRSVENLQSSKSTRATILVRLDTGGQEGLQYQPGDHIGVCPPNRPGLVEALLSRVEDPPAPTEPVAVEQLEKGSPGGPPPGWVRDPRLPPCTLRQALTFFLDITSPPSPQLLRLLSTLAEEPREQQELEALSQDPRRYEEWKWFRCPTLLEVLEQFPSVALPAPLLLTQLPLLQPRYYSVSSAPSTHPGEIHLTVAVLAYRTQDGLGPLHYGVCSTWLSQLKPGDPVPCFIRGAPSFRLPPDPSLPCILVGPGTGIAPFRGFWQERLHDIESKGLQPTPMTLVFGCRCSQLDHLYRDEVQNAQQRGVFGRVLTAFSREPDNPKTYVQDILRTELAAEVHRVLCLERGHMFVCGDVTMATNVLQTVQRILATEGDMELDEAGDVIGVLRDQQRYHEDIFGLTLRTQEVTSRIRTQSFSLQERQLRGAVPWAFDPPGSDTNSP
T2 sequence (P29476 whole entry, canonical isoform): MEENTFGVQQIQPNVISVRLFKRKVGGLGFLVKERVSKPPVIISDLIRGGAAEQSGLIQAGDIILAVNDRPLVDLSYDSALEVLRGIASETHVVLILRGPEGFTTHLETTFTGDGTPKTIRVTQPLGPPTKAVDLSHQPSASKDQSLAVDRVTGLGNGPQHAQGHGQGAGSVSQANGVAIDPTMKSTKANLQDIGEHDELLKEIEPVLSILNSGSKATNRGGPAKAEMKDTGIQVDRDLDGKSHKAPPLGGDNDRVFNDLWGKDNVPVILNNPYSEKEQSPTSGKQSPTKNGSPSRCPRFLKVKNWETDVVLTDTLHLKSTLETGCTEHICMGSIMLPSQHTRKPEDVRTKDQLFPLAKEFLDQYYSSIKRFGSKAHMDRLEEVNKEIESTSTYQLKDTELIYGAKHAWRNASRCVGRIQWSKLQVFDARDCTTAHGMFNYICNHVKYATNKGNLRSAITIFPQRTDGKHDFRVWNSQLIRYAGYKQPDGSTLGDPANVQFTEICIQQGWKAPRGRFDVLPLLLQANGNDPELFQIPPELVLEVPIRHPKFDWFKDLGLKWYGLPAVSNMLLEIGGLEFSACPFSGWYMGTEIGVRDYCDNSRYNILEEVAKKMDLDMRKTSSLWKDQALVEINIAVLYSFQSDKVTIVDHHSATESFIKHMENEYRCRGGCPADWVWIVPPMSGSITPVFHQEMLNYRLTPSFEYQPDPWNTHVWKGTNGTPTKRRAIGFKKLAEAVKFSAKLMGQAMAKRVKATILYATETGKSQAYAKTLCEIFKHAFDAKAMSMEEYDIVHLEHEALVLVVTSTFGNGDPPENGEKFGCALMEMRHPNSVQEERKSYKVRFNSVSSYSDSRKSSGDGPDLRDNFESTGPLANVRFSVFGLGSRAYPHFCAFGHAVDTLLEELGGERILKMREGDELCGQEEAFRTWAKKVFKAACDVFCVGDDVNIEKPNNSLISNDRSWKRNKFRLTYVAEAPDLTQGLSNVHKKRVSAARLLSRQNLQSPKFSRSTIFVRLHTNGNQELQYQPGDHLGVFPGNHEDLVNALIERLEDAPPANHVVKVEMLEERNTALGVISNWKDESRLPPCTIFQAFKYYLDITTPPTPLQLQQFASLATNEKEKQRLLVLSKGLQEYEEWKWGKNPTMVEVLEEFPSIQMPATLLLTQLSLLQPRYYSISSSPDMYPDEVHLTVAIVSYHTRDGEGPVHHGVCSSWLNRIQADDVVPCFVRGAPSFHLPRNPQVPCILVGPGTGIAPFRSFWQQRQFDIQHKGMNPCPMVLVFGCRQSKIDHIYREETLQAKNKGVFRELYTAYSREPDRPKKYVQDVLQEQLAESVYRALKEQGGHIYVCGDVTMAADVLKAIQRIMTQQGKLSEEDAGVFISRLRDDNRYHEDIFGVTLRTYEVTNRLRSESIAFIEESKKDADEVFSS

| IC50 in Screen C relative to that obtained in Screen A (selectivity) ([1]; endothelial IC50 / neuronal IC50) | IC50 [2] | IC50 in Screen B relative to that obtained in Screen A (selectivity) [3] | inhibition at 1 µM ([1]; at a concentration of 1 μM, HUVEC enzyme, read-out: inhibition of nitric oxide synthetase (reference standard, Screen C)) | Compound |
| --- | --- | --- | --- | --- |
| more than 10 times | < 10 µM | more than 10 times |  | N=C(Nc1ccc2c(c1)CC(NCc1ccccc1)C2)c1cccs1 (stereo not shown) [Example 1, N-((2-(Phenylmethyl)amino)indan-5-yl)-2-thiophenecarboximidamide dioxalate] |
|  |  |  | 70 to 90% | N=C(NCCC[C@H](N)C(=O)O)N[N+](=O)[O-] [N-nitro-L-arginine, reference compound] |
